Measurements reported in ChEMBL document CHEMBL5150054, “Pyrazole-containing pharmaceuticals: target, pharmacological activity, and their SAR studies” (RSC Med Chem, 2022).

How the values were obtained:
[1] = target: cGMP-specific 3',5'-cyclic phosphodiesterase (Homo sapiens, UniProt O76074)
Description: Inhibition of PDE5 (unknown origin)

[2] = Dissociation constant, pKa of compound; assay type: physicochemical
Plasma kallikrein = Plasma kallikrein (Homo sapiens, UniProt P03952); test: Inhibition of plasma kallikrein (unknown origin)
[3] = Inhibition of GABA receptor BZ domain (unknown origin); parameters: species or system Homo sapiens

Sequence of Plasma kallikrein (P03952 20-390 limits assumed): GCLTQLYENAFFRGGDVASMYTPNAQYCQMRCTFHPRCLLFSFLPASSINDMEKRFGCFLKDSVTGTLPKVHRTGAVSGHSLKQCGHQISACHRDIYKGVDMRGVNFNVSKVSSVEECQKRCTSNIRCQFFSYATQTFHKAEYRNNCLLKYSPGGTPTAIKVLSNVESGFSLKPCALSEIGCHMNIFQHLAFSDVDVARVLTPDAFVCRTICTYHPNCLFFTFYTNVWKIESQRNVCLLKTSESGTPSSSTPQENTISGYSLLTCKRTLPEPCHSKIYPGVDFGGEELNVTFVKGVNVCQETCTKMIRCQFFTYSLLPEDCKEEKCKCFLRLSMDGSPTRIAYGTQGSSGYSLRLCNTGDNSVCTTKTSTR
Sequence of Plasma kallikrein (P03952 391-638 limits assumed): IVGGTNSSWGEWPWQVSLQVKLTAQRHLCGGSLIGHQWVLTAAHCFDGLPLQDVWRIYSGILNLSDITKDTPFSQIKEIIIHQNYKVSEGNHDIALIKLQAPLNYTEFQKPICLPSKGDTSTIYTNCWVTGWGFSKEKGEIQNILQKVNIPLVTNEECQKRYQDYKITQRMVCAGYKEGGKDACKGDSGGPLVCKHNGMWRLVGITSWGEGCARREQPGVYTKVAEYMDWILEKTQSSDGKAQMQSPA

CCCOc1ccc(S(=O)(=O)NCCC2CCCN2C)cc1-c1nc2c(CCC)nn(C)c2c(=O)[nH]1 (stereo not given) showed an IC50 [1] of 8.25 nM.
For CCCCc1nc(-c2ccccc2Cl)c(C(=O)O)n1Cc1ccc(-c2ccccc2-c2nn[nH]n2)cc1, the pKa [2] was 2.5.
CCCCc1nn(-c2ccccc2Cl)c(C(=O)O)c1Cc1ccc(-c2ccccc2-c2nn[nH]n2)cc1 gave a pKa [2] of 7.1.
Compound N#Cc1cccc([C@@H](NCC2CC2)c2ccc(F)c(NC(=O)c3cc(C(F)(F)F)nn3-c3cccc(CN)c3)c2)c1 [BEROTRALSTAT] has an IC50 (Plasma kallikrein) of 1 nM.
CCN(C(C)=O)c1cccc(-c2ccnc3c(C#N)cnn23)c1 [ZALEPLON] showed an IC50 [3] of 167 nM.
